Patent US11672817B2, “Maltosyl-Isomaltooligosaccharides” (ISOThrive Inc., priority 2016, dated 2023)
No end group written: not given here.

How the values were obtained:
[1] = system: Weissella viridescens NRRL B-1951; test: W. viridescens culture absorbance (growth) with nisin; assay type: cell-based; design: key to Corrected ABS 610rs: A600 minus background absorbance taken just after inoculation; conditions: for 91516 ABS 610f: final absorbance, uncorrected
Description: Purified nisin A and Z are commercially available and were acquired from Handary S. A. (Brussels Belgium). Certificates of analysis for each lot indicated purities of 95.2 and 99.6% for nisin A and Z, respectively.
100 g De-Man, Rogosa and Sharpe (MRS) media was prepared in a 500 mL Erlenmeyer to contain 5.5% solids in deionized water (18.2 MS2, Hydro Service and Supplies, Gaithersburg, Md.). The media was autoclaved (121° C. 15 min), cooled, and inoculated with 1 mL (0.5 mL culture+0.5 mL glycerol, 40%; frozen at −78° C.) of Weissella viridescens NRRL B-1951 (test strain). The culture was incubated at 31° C. overnight (15 Hr).
The next day, stock solutions of either nisin A or Z were prepared in deionized water to contain 31.3 and 33.7 μg/g of each peptide.
(§1) 100 g MRS media was prepared to contain 5.5% solids. Two sets (one set each for nisin A and nisin Z) of eight Hach-type tubes (Kimble Chase 45066-16100) were prepared. Within each set, in order was added 5.00, 4.95, 4.90, 4.75, 4.50, 4.00, 3.50 and 3.00 g MRS media. The tubes were sealed and autoclaved.
(§2) To each tube was added, of the appropriate nisin stock, 0.00, 0.05, 0.10, 0.25, 0.50, 1.00, 1.50, and 2.00 g. Each tube was inoculated with 0.25 g of late-log W. viridescens NRRL B-1951 culture. The tubes were sealed and the absorbance at 600 nm was quickly measured (Hach DR900). The tubes were segregated by set and incubated at 31° C. overnight (15 Hr).
Each tube was thoroughly mixed to suspend settled cells and the absorbance was measured again at 600 nm. The final absorbance values for each sample were corrected for their respective background (taken just after inoculation, scattered light from added cells). The corrected absorption values were a measure of W. viridescens growth. The corrected values were plotted against nisin concentration and minimum inhibiting concentration approximated via regression.

[2] = system: Weissella viridescens NRRL B-1951; test: HPLC of culture supernatants: consumption of glucose and production of organic acids with nisin; assay type: cell-based; conditions: for acetic acid in the fermentation media: MRS media originally contained 7% acetate
Description: as §1, §2
Each tube was sampled (1.5 mL conical polypropylene centrifuge tubes) and centrifuged at 10 kRPM for 10 minutes to remove and suspended cells. The resulting supernatants were filtered (0.2 μm nylon), diluted to 0.5% solids, and analyzed by high pressure liquid chromatography (HPLC, Agilent 1100, refractive index detector and BioRad Ainex HPX-87H column) for consumption of glucose and production of organic acids. The following table illustrates the concentration of sugars such as glucose and production of organic acids during the incubation.
Note that the MRS media originally contained 7% acetate; therefore 7% should be subtracted from the values for acetate in the above table to ascertain the amount of acetate generated during the assay.

With “nisin Z (ITSISLCTPGCKTGALMGCNMKTATCNCSIHVSK; not fully specified (residues 2, 5, 33, bridges); also: lantibiotic (thioether rings, dehydrated residues not placed); UniProt P13068 24-57, looked up, variant H27N) [Purified nisin Z, commercially available, acquired from Handary S. A; purity 99.6%; bacteriocin peptide]” the “inhibition of bacterial growth” value [1] was “can effectively inhibit”, the “91516 ABS 610f” value ([1]; nisin Z 0.34 μg/g (tube Z2)) was 1.618 and the “91516 ABS 610f” value ([1]; nisin Z 0.77 μg/g (tube Z3)) was 1.526. For the same substance, the “91516 ABS 610f” value ([1]; nisin Z 1.58 μg/g (tube Z4)) was 1.296, the “91516 ABS 610f” value ([1]; nisin Z 3.19 μg/g (tube Z5)) was 0.801 and the “91516 ABS 610f” value ([1]; nisin Z 6.31 μg/g (tube Z6)) was 0.426. The “91516 ABS 610f” value ([1]; nisin Z 9.54 μg/g (tube Z7)) was 0.384, the “91516 ABS 610f” value ([1]; nisin Z 12.61 μg/g (tube Z8)) was 0.386 and the “Corrected ABS 610rs” value ([1]; nisin Z 0.34 μg/g (tube Z2)) was 1.146. The “Corrected ABS 610rs” value ([1]; nisin Z 0.77 μg/g (tube Z3)) was 1.062, the “Corrected ABS 610rs” value ([1]; nisin Z 1.58 μg/g (tube Z4)) was 0.841 and the “Corrected ABS 610rs” value ([1]; nisin Z 3.19 μg/g (tube Z5)) was 0.359. The “Corrected ABS 610rs” value ([1]; nisin Z 6.31 μg/g (tube Z6)) was 0.003, the “Corrected ABS 610rs” value ([1]; nisin Z 9.54 μg/g (tube Z7)) was 0.001 and the “Corrected ABS 610rs” value ([1]; nisin Z 12.61 μg/g (tube Z8)) was 0.001. The “Maltotriose in the fermentation media” value ([2]; nisin Z 0.34 μg/g (tube Z2)) was 0.282 %/brix, the “ethanol in the fermentation media” value ([2]; nisin Z 0.34 μg/g (tube Z2)) was 0.057 %/brix and the “formic acid in the fermentation media” value ([2]; nisin Z 0.34 μg/g (tube Z2)) was 0.303 %/brix. The “fructose in the fermentation media” value ([2]; nisin Z 0.34 μg/g (tube Z2)) was 0.000 %/brix, the “glucose in the fermentation media” value ([2]; nisin Z 0.34 μg/g (tube Z2)) was 22.988 %/brix and the “glycerol in the fermentation media” value ([2]; nisin Z 0.34 μg/g (tube Z2)) was 0.343 %/brix. For the same substance, the “lactic acid in the fermentation media” value ([2]; nisin Z 0.34 μg/g (tube Z2)) was 6.742 %/brix, the “maltose in the fermentation media” value ([2]; nisin Z 0.34 μg/g (tube Z2)) was 0.722 %/brix and the “acetic acid in the fermentation media” value ([2]; nisin Z 0.34 μg/g (tube Z2)) was 8.273 %/brix. The “Maltotriose in the fermentation media” value ([2]; nisin Z 1.58 μg/g (tube Z4)) was 0.265 %/brix, the “ethanol in the fermentation media” value ([2]; nisin Z 1.58 μg/g (tube Z4)) was 0.083 %/brix and the “formic acid in the fermentation media” value ([2]; nisin Z 1.58 μg/g (tube Z4)) was 0.309 %/brix. The “fructose in the fermentation media” value ([2]; nisin Z 1.58 μg/g (tube Z4)) was 0.000 %/brix, the “glucose in the fermentation media” value ([2]; nisin Z 1.58 μg/g (tube Z4)) was 24.153 %/brix and the “glycerol in the fermentation media” value ([2]; nisin Z 1.58 μg/g (tube Z4)) was 0.337 %/brix. The “lactic acid in the fermentation media” value ([2]; nisin Z 1.58 μg/g (tube Z4)) was 5.081 %/brix, the “maltose in the fermentation media” value ([2]; nisin Z 1.58 μg/g (tube Z4)) was 1.007 %/brix and the “acetic acid in the fermentation media” value ([2]; nisin Z 1.58 μg/g (tube Z4)) was 8.247 %/brix. For the same substance, the “Maltotriose in the fermentation media” value ([2]; nisin Z 3.19 μg/g (tube Z5)) was 0.311 %/brix, the “ethanol in the fermentation media” value ([2]; nisin Z 3.19 μg/g (tube Z5)) was 0.067 %/brix and the “formic acid in the fermentation media” value ([2]; nisin Z 3.19 μg/g (tube Z5)) was 0.281 %/brix. The “fructose in the fermentation media” value ([2]; nisin Z 3.19 μg/g (tube Z5)) was 0.000 %/brix, the “glucose in the fermentation media” value ([2]; nisin Z 3.19 μg/g (tube Z5)) was 24.698 %/brix and the “glycerol in the fermentation media” value ([2]; nisin Z 3.19 μg/g (tube Z5)) was 0.321 %/brix. The “lactic acid in the fermentation media” value ([2]; nisin Z 3.19 μg/g (tube Z5)) was 2.995 %/brix, the “maltose in the fermentation media” value ([2]; nisin Z 3.19 μg/g (tube Z5)) was 0.750 %/brix and the “acetic acid in the fermentation media” value ([2]; nisin Z 3.19 μg/g (tube Z5)) was 8.026 %/brix. The “Maltotriose in the fermentation media” value ([2]; nisin Z 6.31 μg/g (tube Z6)) was 0.247 %/brix, the “ethanol in the fermentation media” value ([2]; nisin Z 6.31 μg/g (tube Z6)) was 0.059 %/brix and the “formic acid in the fermentation media” value ([2]; nisin Z 6.31 μg/g (tube Z6)) was 0.267 %/brix. The “fructose in the fermentation media” value ([2]; nisin Z 6.31 μg/g (tube Z6)) was 0.000 %/brix, the “glucose in the fermentation media” value ([2]; nisin Z 6.31 μg/g (tube Z6)) was 25.353 %/brix and the “glycerol in the fermentation media” value ([2]; nisin Z 6.31 μg/g (tube Z6)) was 0.320 %/brix. The “lactic acid in the fermentation media” value ([2]; nisin Z 6.31 μg/g (tube Z6)) was 1.351 %/brix, the “maltose in the fermentation media” value ([2]; nisin Z 6.31 μg/g (tube Z6)) was 0.726 %/brix and the “acetic acid in the fermentation media” value ([2]; nisin Z 6.31 μg/g (tube Z6)) was 7.969 %/brix. For the same substance, the “Maltotriose in the fermentation media” value ([2]; nisin Z 9.54 μg/g (tube Z7)) was 0.291 %/brix, the “ethanol in the fermentation media” value ([2]; nisin Z 9.54 μg/g (tube Z7)) was 0.065 %/brix and the “formic acid in the fermentation media” value ([2]; nisin Z 9.54 μg/g (tube Z7)) was 0.263 %/brix. The “fructose in the fermentation media” value ([2]; nisin Z 9.54 μg/g (tube Z7)) was 0.000 %/brix, the “glucose in the fermentation media” value ([2]; nisin Z 9.54 μg/g (tube Z7)) was 25.501 %/brix and the “glycerol in the fermentation media” value ([2]; nisin Z 9.54 μg/g (tube Z7)) was 0.335 %/brix. The “lactic acid in the fermentation media” value ([2]; nisin Z 9.54 μg/g (tube Z7)) was 1.431 %/brix, the “maltose in the fermentation media” value ([2]; nisin Z 9.54 μg/g (tube Z7)) was 0.895 %/brix and the “acetic acid in the fermentation media” value ([2]; nisin Z 9.54 μg/g (tube Z7)) was 8.026 %/brix. For the same substance, the “Maltotriose in the fermentation media” value ([2]; nisin Z 12.61 μg/g (tube Z8)) was 0.318 %/brix, the “ethanol in the fermentation media” value ([2]; nisin Z 12.61 μg/g (tube Z8)) was 0.148 %/brix and the “formic acid in the fermentation media” value ([2]; nisin Z 12.61 μg/g (tube Z8)) was 0.299 %/brix. For the same substance, the “fructose in the fermentation media” value ([2]; nisin Z 12.61 μg/g (tube Z8)) was 0.000 %/brix, the “glucose in the fermentation media” value ([2]; nisin Z 12.61 μg/g (tube Z8)) was 25.740 %/brix and the “glycerol in the fermentation media” value ([2]; nisin Z 12.61 μg/g (tube Z8)) was 0.346 %/brix. The “lactic acid in the fermentation media” value ([2]; nisin Z 12.61 μg/g (tube Z8)) was 1.652 %/brix, the “maltose in the fermentation media” value ([2]; nisin Z 12.61 μg/g (tube Z8)) was 0.876 %/brix and the “acetic acid in the fermentation media” value ([2]; nisin Z 12.61 μg/g (tube Z8)) was 8.261 %/brix.
